Source: paper PMC6104695 (Virulence, 2017)
Converted amounts (≈) assume the structure as drawn. “And” between values parts separate entries of the source, which are not always exact repeats. Equal values may be shown once. Ends that are not written are not given here. Peptide text beside a SMILES is read from it.

Legend:
[1] = test system: B. anthracis Sterne vegetative bacteria; settings: 24 h
B. anthracis = settings: mouse, in vivo, sc; cited from earlier work
[2] = test system: B. anthracis Sterne spores; test: microbe, parasite or virus in culture; settings: Bacillus anthracis, 3 h, pH 7.4, read-out: Sporicidal EC50 (95% Confidence Interval)
[3] = test system: B. anthracis Sterne spores; set-up: species or system Galleria mellonella; settings: in vivo

Compound	MIC [1]	also measured
GLKLRFEFSKIKGEFLKTPEVRFRDIKLKDNRISVQR [Scrambled LL-37]	>150 µM	–
CC(C)C[C@H](NC(=O)[C@H](CCCNC(=N)N)NC(=O)CNC(=O)CNC(=O)[C@@H](N)CCCNC(=N)N)C(=O)N[C@@H](CS)C(=O)N[C@@H](Cc1ccc(O)cc1)C(=O)N[C@@H](CS)C(=O)N[C@@H](CCCNC(=N)N)C(=O)N[C@@H](CCCNC(=N)N)C(=O)N[C@@H](CCCNC(=N)N)C(=O)N[C@@H](Cc1ccccc1)C(=O)N[C@@H](CS)C(=O)N[C@H](C(=O)N[C@@H](CS)C(=O)N[C@H](C(=O)NCC(=O)N[C@@H](CCCNC(=N)N)C(=O)O)C(C)C)C(C)C [PG-1] (H-RGGRLCYCRRRFCVCVGR-OH; N-terminus and C-terminus assumed)	7.41 µM (≈ 16 µg/mL)	Survival of infected mice (B. anthracis): 80%
O=C(O)c1cn(C2CC2)c2cc(N3CCNCC3)c(F)cc2c1=O [Ciprofloxacin]	–	EC50 [2]: 70.8 µg/mL and > 100 µM; Rescue of infected waxworms by ciprofloxacin [3]: 100%; Survival (%) of B. anthracis infected G. mellonella larvae [3]: 100%
GLLRKGGEKIGEKLKKIGQKIKNFFQKLVPQPEQ [mCRAMP]	16.5 µM	–
CC[C@H](C)[C@H](NC(=O)[C@H](CCCCN)NC(=O)[C@H](CCC(=O)O)NC(=O)[C@H](CCCCN)NC(=O)[C@H](CO)NC(=O)[C@H](CCCCN)NC(=O)[C@H](CCCNC(=N)N)NC(=O)[C@H](Cc1ccccc1)NC(=O)[C@H](Cc1ccccc1)NC(=O)[C@H](CC(=O)O)NC(=O)CNC(=O)[C@H](CC(C)C)NC(=O)[C@@H](N)CC(C)C)C(=O)NCC(=O)N[C@@H](CCCCN)C(=O)N[C@@H](CCC(=O)O)C(=O)N[C@@H](Cc1ccccc1)C(=O)N[C@@H](CCCCN)C(=O)N[C@@H](CCCNC(=N)N)C(=O)N[C@H](C(=O)N[C@H](C(=O)N[C@@H](CCC(N)=O)C(=O)N[C@@H](CCCNC(=N)N)C(=O)N[C@H](C(=O)N[C@@H](CCCCN)C(=O)N[C@@H](CC(=O)O)C(=O)N[C@@H](Cc1ccccc1)C(=O)N[C@@H](CC(C)C)C(=O)N[C@@H](CCCNC(=N)N)C(=O)N[C@@H](CC(N)=O)C(=O)N[C@@H](CC(C)C)C(=O)N[C@H](C(=O)N1CCC[C@H]1C(=O)N[C@@H](CCCNC(=N)N)C(=O)N[C@H](C(=O)N[C@@H](CCC(=O)O)C(=O)N[C@@H](CO)C(=O)O)[C@@H](C)O)C(C)C)[C@@H](C)CC)C(C)C)[C@@H](C)CC [LL-37]	7.12 µM (≈ 32 µg/mL)	–
